The source of these data is US9216991B2 (Ares Trading S.A., priority 2012, dated 2015).

The structures appear in SMILES notation. Counter-ions that a name gives are not always drawn.

This assay deals with T1, IRAK4 (Homo sapiens, UniProt Q9NWZ3).
T1 construct: His (N); TEV cleavage site (N)
T1 sequence (Q9NWZ3 1-460): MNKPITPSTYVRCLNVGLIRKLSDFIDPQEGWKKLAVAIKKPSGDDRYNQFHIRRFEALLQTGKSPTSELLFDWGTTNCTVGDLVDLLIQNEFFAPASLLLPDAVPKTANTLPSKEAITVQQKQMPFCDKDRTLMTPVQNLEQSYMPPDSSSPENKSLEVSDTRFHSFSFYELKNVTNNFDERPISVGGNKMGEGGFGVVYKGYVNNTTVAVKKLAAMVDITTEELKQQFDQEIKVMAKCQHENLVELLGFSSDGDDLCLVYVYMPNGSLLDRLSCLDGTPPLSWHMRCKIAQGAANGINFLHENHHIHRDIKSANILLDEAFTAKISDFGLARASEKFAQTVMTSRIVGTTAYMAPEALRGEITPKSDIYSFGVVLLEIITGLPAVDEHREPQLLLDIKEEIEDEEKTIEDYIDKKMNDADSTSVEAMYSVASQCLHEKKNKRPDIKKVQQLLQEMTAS
Description: IRAK4 Enzymatic Assay. Type of assay: biochemical. The settings on record: His-TEV-IRAK4 20 ng/well, ATP 2 μM, STK1-biotin peptide 300 nM, 3 hours at 30° C., FlashPlate radioactivity. The method in brief:
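Radiometric FlashPlate readout: biotin-STK1 substrate (300 nM) captured on streptavidin after EDTA stop and washes. Reaction used His-TEV-IRAK4 (20 ng/well), 2 μM [^33P]-spiked ATP and compound (1 nM-20 μM), incubated 3 h at 30 °C in 50 mM HEPES pH 7.0, 10 mM MgCl2, 5 mM MnCl2, 2 mM DTT.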
As to `CN(C)C(=O)[C@H]1CC[C@@H](n2cc(-c3cnc(-c4cccc(-c5cnn(C)c5)c4)nc3)cn2)CC1` [Example 135, Cis-4-(4-{2-[3-(1-Methyl-1H-pyrazol-4-yl)-phenyl]-pyrimidin-5-yl}-pyrazol-1-yl)-cyclohexanecarboxylic acid dimethylamide], the 50% inhibitory concentration (IC50) was 100 to 1000 nM. For `Cn1cc(-c2cccc(-c3ncc(-c4cnn([C@H]5CCC[S@@+]([O-])C5)c4)cn3)c2)cn1` (racemic) [Example 236, 2-[3-(1-Methyl-1H-pyrazol-4-yl)-phenyl]-5-[1-(Cis-1-oxo-tetrahydro-thiopyran-3-yl)-1H-pyrazol-4-yl]-pyrimidine], the half-inhibitory concentration (IC50) is < 100 nM.

For the compound `CC(C(=O)N(C)C)n1cc(-c2cnc(-c3cccc(-c4cnn(C)c4)c3)nc2)cn1` (stereo not shown) [Example 99, N,N-Dimethyl-2-(4-{2-[3-(1-methyl-1H-pyrazol-4-yl)-phenyl]-pyrimidin-5-yl}-pyrazol-1-yl)-propionamide], the IC50 was in the range of 1000 to 5000 nM. For the compound `Cn1cc(-c2cccc(-c3ncc(-c4cnn(CC5CCNCC5)c4)cn3)c2)cn1` [Example 29, 2-[3-(1-Methyl-1H-pyrazol-4-yl)-phenyl]-5-(1-piperidin-4-ylmethyl-1H-pyrazol-4-yl)-pyrimidine hydrochloride], the IC50 lay in the range of 1000 to 5000 nM. Turning to `Cn1cc(-c2cccc(-c3ncc(-c4cnn([C@H]5CCNC5)c4)cn3)c2)cn1` [Example 125, 2-[3-(1-Methyl-1H-pyrazol-4-yl)-phenyl]-5-((S)-1-pyrrolidin-3-yl-1H-pyrazol-4-yl)-pyrimidine], the IC50 fell in the range of 100 to 1000 nM. On to `COCC(=O)N1CCC(n2cc(-c3cnc(-c4cccc(-c5cnn(C)c5)c4)nc3)cn2)CC1` [Example 105, 2-Methoxy-1-[4-(4-{2-[3-(1-methyl-1H-pyrazol-4-yl)-phenyl]-pyrimidin-5-yl}-pyrazol-1-yl)-piperidin-1-yl]-ethanone], for which the half-inhibitory concentration (IC50) lay in the range of 100 to 1000 nM. On to `COCC1CCCN(C(=O)Cn2cc(-c3cnc(-c4cccc(-c5cnn(C)c5)c4)nc3)cn2)C1` (stereo not shown) [Example 88, 1-(3-Methoxymethyl-piperidin-1-yl)-2-(4-{2-[3-(1-methyl-1H-pyrazol-4-yl)-phenyl]-pyrimidin-5-yl}-pyrazol-1-yl)-ethanone], for which the IC50 fell in the range of 100 to 1000 nM. As to `CN(C)C(=O)C1CC(n2cc(-c3cnc(-c4cccc(-c5cnn(C)c5)c4)nc3)cn2)C1` (stereo not shown) [Example 158, 3-(4-{2-[3-(1-Methyl-1H-pyrazol-4-yl)-phenyl]-pyrimidin-5-yl}-pyrazol-1-yl)-cyclobutanecarboxylic acid dimethylamide], the IC50 was 100 to 1000 nM. Regarding `CC(=O)N1CC[C@H](n2cc(-c3cnc(-c4cccc(-c5cnn(C)c5)c4)nc3)cn2)[C@@H](O)C1` [Example 225, 1-[(3S,4S)-3-Hydroxy-4-(4-{2-[3-(1-methyl-1H-pyrazol-4-yl)-phenyl]-pyrimidin-5-yl}-pyrazol-1-yl)-piperidin-1-yl]-ethanone], the IC50 was in the range of 100 to 1000 nM. The result for `CN1CCCC1CCn1cc(-c2cnc(-c3cccc(-c4cnn(C)c4)c3)nc2)cn1` (stereo not shown) [Example 64, 2-[3-(1-Methyl-1H-pyrazol-4-yl)-phenyl]-5-{1-[2-(1-methyl-pyrrolidin-2-yl)-ethyl]-1H-pyrazol-4-yl}-pyrimidine] reads 100 to 1000 nM; that for `CN1CCN(C(=O)CCn2cc(-c3cnc(-c4cccc(-c5cnn(C)c5)c4)nc3)cn2)CC1` [Example 102, 1-(4-Methyl-piperazin-1-yl)-3-(4-{2-[3-(1-methyl-1H-pyrazol-4-yl)-phenyl]-pyrimidin-5-yl}-pyrazol-1-yl)-propan-1-one], 1000 to 5000 nM; that for `Cn1cc(-c2cccc(-c3ncc(-c4cnn(C5CCCC(=O)C5)c4)cn3)c2)cn1` (stereo not shown) [Example 195, 3-(4-{2-[3-(1-Methyl-1H-pyrazol-4-yl)-phenyl]-pyrimidin-5-yl}-pyrazol-1-yl)-cyclohexanone], 100 to 1000 nM.

On to `O=C(Cn1cc(-c2cnc(-c3cccc(-c4c[nH]nn4)c3)nc2)cn1)N1CCOCC1` [Example 79, 1-Morpholin-4-yl-2-(4-{2-[3-(1H-[1,2,3]triazol-4-yl)-phenyl]-pyrimidin-5-yl}-pyrazol-1-yl)-ethanone], for which the concentration for half-maximal inhibition (IC50) was in the range of 1000 to 5000 nM. With `CN1[C@@H]2CC[C@H]1C[C@H](n1cc(-c3cnc(-c4cccc(-c5cnn(C)c5)c4)nc3)cn1)C2` [Example 61, (3-exo)-8-Methyl-3-(4-{2-[3-(1-methyl-1H-pyrazol-4-yl)-phenyl]-pyrimidin-5-yl}-pyrazol-1-yl)-8-aza-bicyclo[3.2.1]octane], the IC50 was < 100 nM. The result for `CO[C@H]1CN(C(=O)[C@H]2CC[C@H](n3cc(-c4cnc(-c5cccc(-c6cnn(C)c6)c5)nc4)cn3)CC2)C[C@@H]1O` (relative stereo) [Example 245, (Trans-3-Hydroxy-4-methoxy-pyrrolidin-1-yl)-[4-Trans-(4-{2-[3-(1-methyl-1H-pyrazol-4-yl)-phenyl]-pyrimidin-5-yl}-pyrazol-1-yl)-cyclohexyl]-methanone] reads < 100 nM; that for `Cc1ncccc1CCn1cc(-c2cnc(-c3cccc(-c4cnn(C)c4)c3)nc2)cn1` [Example 89, 2-[3-(1-Methyl-1H-pyrazol-4-yl)-phenyl]-5-{1-[2-(2-methyl-pyridin-3-yl)-ethyl]-1H-pyrazol-4-yl}-pyrimidine], 100 to 1000 nM.

For `COCCNC(=O)[C@H]1CC[C@H](n2cc(-c3cnc(-c4cccc(-c5cnn(C)c5)c4)nc3)cn2)CC1` [Example 159, Trans-4-(4-{2-[3-(1-Methyl-1H-pyrazol-4-yl)-phenyl]-pyrimidin-5-yl}-pyrazol-1-yl)-cyclohexanecarboxylic acid (2-methoxy-ethyl)-amide], the IC50 was < 100 nM. Regarding `c1cncc(-c2cccc(-c3ncc(-c4cnn(C5CCNCC5)c4)cn3)c2)c1` [Example 2, 5-(1-(piperidin-4-yl)-1H-pyrazol-4-yl)-2-(3-(pyridin-3-yl)phenyl)pyrimidine hydrochloride], the 50% inhibitory concentration (IC50) lay within 100 to 1000 nM. The result for `CN1CC(C(=O)N2CCC(n3cc(-c4cnc(-c5cccc(-c6cnn(C)c6)c5)nc4)cn3)CC2)CC1=O` (stereo not shown) [Example 113, 1-Methyl-4-[4-(4-{2-[3-(1-methyl-1H-pyrazol-4-yl)-phenyl]-pyrimidin-5-yl}-pyrazol-1-yl)-piperidine-1-carbonyl]-pyrrolidin-2-one] reads 100 to 1000 nM; that for `Cn1cc(-c2cccc(-c3ncc(-c4cnn(C5CCN(C6COC6)CC5)c4)cn3)c2)cn1` [Example 28, 2-[3-(1-Methyl-1H-pyrazol-4-yl)-phenyl]-5-[1-(1-oxetan-3-yl-piperidin-4-yl)-1H-pyrazol-4-yl]-pyrimidine], 100 to 1000 nM; that for `CNC(=O)C(CCO)n1cc(-c2cnc(-c3cccc(-c4cnn(C)c4)c3)nc2)cn1` (stereo not shown) [Example 169, 4-Hydroxy-N-methyl-2-(4-{2-[3-(1-methyl-1H-pyrazol-4-yl)-phenyl]-pyrimidin-5-yl}-pyrazol-1-yl)-butyramide], 1000 to 5000 nM.

Regarding `c1cc(-c2cnoc2)cc(-c2ncc(-c3cnn(C4CCNCC4)c3)cn2)c1` [Example 13, 2-(3-Isoxazol-4-yl-phenyl)-5-(1-piperidin-4-yl-1H-pyrazol-4-yl)-pyrimidine hydrochloride], the IC50 was in the range of 100 to 1000 nM.

Consider `CO[C@@H]1CCN(C(=O)[C@H]2CC[C@H](n3cc(-c4cnc(-c5cccc(-c6cnn(C)c6)c5)nc4)cn3)CC2)C1` [Example 168, ((R)-3-Methoxy-pyrrolidin-1-yl)-trans-[4-(4-{2-[3-(1-methyl-1H-pyrazol-4-yl)-phenyl]-pyrimidin-5-yl}-pyrazol-1-yl)-cyclohexyl]-methanone], for which the half-maximal inhibitory concentration (IC50) was < 100 nM. The result for `Cn1cc(-c2cccc(-c3ncc(-c4cnn(C(C)(C)C(=O)N5CCOCC5)c4)cn3)c2)cn1` [Example 150, 2-Methyl-2-(4-{2-[3-(1-methyl-1H-pyrazol-4-yl)-phenyl]-pyrimidin-5-yl}-pyrazol-1-yl)-1-morpholin-4-yl-propan-1-one] reads 1000 to 5000 nM; that for `Cn1cc(-c2cccc(-c3ncc(-c4cnn([C@H]5CC[C@H](C(=O)NCCCO)CC5)c4)cn3)c2)cn1` [Example 190, Trans-4-(4-{2-[3-(1-Methyl-1H-pyrazol-4-yl)-phenyl]-pyrimidin-5-yl}-pyrazol-1-yl)-cyclohexanecarboxylic acid (3-hydroxy-propyl)-amide], < 100 nM; that for `CN1C[C@]2(CC[C@H](n3cc(-c4cnc(-c5cccc(-c6cnn(C)c6)c5)nc4)cn3)CC2)CC1=O` [Example 260, trans-2-Methyl-8-(4-{2-[3-(1-methyl-1H-pyrazol-4-yl)-phenyl]-pyrimidin-5-yl}-pyrazol-1-yl)-2-aza-spiro[4.5]decan-3-one], < 100 nM. Consider `Cc1cc(-c2cccc(-c3ncc(-c4cnn([C@H]5CC[C@H](O)CC5)c4)cn3)c2)cnn1` [Example 247, trans-4-(4-{2-[3-(6-Methyl-pyridazin-4-yl)-phenyl]-pyrimidin-5-yl}-pyrazol-1-yl)-cyclohexanol], for which the half-inhibitory concentration (IC50) was in the range of 100 to 1000 nM. Turning to `Cn1cc(-c2cccc(-c3ncc(-c4cnn(CC(=O)N5CC6CCC(C5)O6)c4)cn3)c2)cn1` [Example 94, 2-(4-{2-[3-(1-Methyl-1H-pyrazol-4-yl)-phenyl]-pyrimidin-5-yl}-pyrazol-1-yl)-1-(8-oxa-3-aza-bicyclo[3.2.1]oct-3-yl)-ethanone], the 50% inhibitory concentration (IC50) is 100 to 1000 nM.
